Where two headings read alike, the source gives them in different places. Bounds are passed on as bounds.

Usually CC50 stands for the concentration that lowers cell viability or growth by half.

The subject of series [1] is Trypanosoma. More on the design: method as in PMID 16569852, PMID 20004045. To be noted: cited from earlier work.
For series [2], the system named is HEK293T cells. Description: Cytotoxicity assay (resazurin, 3 days), HEK293T. The settings on record: for s.i (selectivity index) HEK239T: CC50 (HEK293T)/IC50 (T. brucei). The series is classed as cell-based, human. The procedure: (§1) HEK293T and HepG2 cells were cultured at 37 °C with 5% CO2 in Dulbecco’s modified eagle medium containing 10% FBS. Both cell lines were plated individually in 384 well plates (4000 cells per well) and the natural compounds (two fold 10 points serial dilution starting from 5 ppm) were added for 3 days of incubation.

Series [3] can be described thus: Cytotoxicity assay (resazurin, 3 days), HEK293T. The series is classed as cell-based, human. The settings on record: human. How it is done:
as §1
For orientation: Alamar Blue is a resazurin reagent that responds to reducing activity.

Series [4] concerns T. b. brucei strain 427 (bloodstream forms). Description: Anti-trypanosomal activity on T. brucei (resazurin growth inhibition, 3 days). Type of series: cell-based, Trypanosoma brucei. From the text: To identify inhibitors of T. brucei growth, we conducted a screening of a proprietary library consisting of 440 purified natural products isolated from medicinal plants at the CNU laboratories. […] Nevertheless, since, according to the 5th rule, natural products may also represent exceptions from the other rules, all compounds were submitted to antiparasitic screening performed at a single concentration of 5 ppm (µg/mL) of each purified natural product.
T. b. brucei strain 427 (bloodstream forms) were cultivated at 37 °C with 5% CO2 atmosphere in HMI-9 medium supplemented with 10% FBS. […] After the incubation, the parasites were exposed to 120 µM of resazurin sodium salt for 5 h. Then, the parasites were fixed with 4% PFA and the assay plates were read by Victor 3 (PerkinElmer, Waltham, MA, USA) at 530 nmEx/590 nmEm. Pentamidine was used as a reference drug and DMSO 0.5% was used as a drug-negative control.

Series [5] deals with HepG2 cells. Nature of the series: Cytotoxicity assay (resazurin, 3 days), HepG2. The settings on record: for s.i (selectivity index) HepG2: CC50 (HepG2)/IC50 (T. brucei). The series is classed as cell-based, human. The procedure:
as §1

Series [6] is described as follows: Cytotoxicity assay (resazurin, 3 days), HepG2. The series is classed as cell-based, human. The settings on record: human. How it is done: as §1
Setting [7] is: Trypanosoma brucei, 72 h, T. b. brucei strain 427 bloodstream forms, 3 days, mean ± SD, read-out: T. brucei IC50.
Where [8] appears, read: Trypanosoma brucei, -log IC50 [M], experimental, read-out: pIC50 Tbr(exp) (converted).
Where [9] appears, read: T. b. brucei strain 427 bloodstream forms, 3 days, mean ± SD, read-out: T. brucei IC50.

For the compound `O=C(/C=C/c1ccc(O)cc1)CC(=O)/C=C/c1ccc(O)cc1` [Compound 1, bisdemethoxycurcumin], in series [1], the “anti-trypanosomal activity previously reported” value is on record as “anti-trypanosomal activity”. Moreover, the “s.i (selectivity index) HEK239T” value in series [2] is given as >3.30. The CC50 at 3 days in series [3] and in series [6] was > 32.5 µM in each case. Also, the results for the IC50 in series [4] (setting [7]) and in series [4] (setting [8]) were 9.84e-06 ± 8.4e-07 M and 9.84e-06 M, respectively. Moreover, the “s.i (selectivity index) HepG2” value in series [5] is given as >3.30.
Take `O=c1cc(-c2ccc(O)cc2)oc2cc(O)cc(O)c12` [Compound 16, apigenin]: in series [1], the “anti-trypanosomal activity previously reported” value is on record as “anti-trypanosomal activity”. Also, the “s.i (selectivity index) HEK239T” value in series [2] was >3.38. Also, the CC50 at 3 days in series [3] and in series [6] was > 37 µM in each case. Further, the IC50 in series [4] (setting [9]) was 1.1e-05 ± 2.64e-06 M; in series [4] (setting [7]), > 1e-05 M; in series [4] (setting [8]) it was 1.1e-05 M. Moreover, the “s.i (selectivity index) HepG2” value in series [5] was >3.38.
As for demethoxycurcumin [Compound 2], the “anti-trypanosomal activity previously reported” value in series [1] was “anti-trypanosomal activity”. For the same compound, the CC50 in series [2] (HEK293T cells, 3 days, > = highest concentration tested (5 ppm), read-out: Cytotoxicity CC50 Values HEK239T) is > 21.4 µM; in series [5] (HepG2 cells, 3 days, > = highest concentration tested (5 ppm)) it was > 29.6 µM. Also, the “pIC50 Tbr(exp)” value in series [4] (-log IC50 [M], experimental) was found to be 5.143. Further, in series [4] (setting [9]), the IC50 turned out to be 7.19e-06 ± 1.02e-06 M.
